The record followed here is ChEMBL document CHEMBL4507319 (2021).

The target of test [1] is Histamine H2 receptor (Homo sapiens) (UniProt P25021). The following applies: Compound concentration 10.0 uM.
Test [2] concerns the target Ephrin type-A receptor 7 (Homo sapiens) (UniProt Q15375). The test is described as follows: EphA7(h) Eurofins kinase panel. Conditions: Compound concentration 1.0 uM.
For test [3], the target named is T1, Interleukin-1 receptor-associated kinase 4 (Homo sapiens) (UniProt Q9NWZ3).
T1 sequence (whole entry): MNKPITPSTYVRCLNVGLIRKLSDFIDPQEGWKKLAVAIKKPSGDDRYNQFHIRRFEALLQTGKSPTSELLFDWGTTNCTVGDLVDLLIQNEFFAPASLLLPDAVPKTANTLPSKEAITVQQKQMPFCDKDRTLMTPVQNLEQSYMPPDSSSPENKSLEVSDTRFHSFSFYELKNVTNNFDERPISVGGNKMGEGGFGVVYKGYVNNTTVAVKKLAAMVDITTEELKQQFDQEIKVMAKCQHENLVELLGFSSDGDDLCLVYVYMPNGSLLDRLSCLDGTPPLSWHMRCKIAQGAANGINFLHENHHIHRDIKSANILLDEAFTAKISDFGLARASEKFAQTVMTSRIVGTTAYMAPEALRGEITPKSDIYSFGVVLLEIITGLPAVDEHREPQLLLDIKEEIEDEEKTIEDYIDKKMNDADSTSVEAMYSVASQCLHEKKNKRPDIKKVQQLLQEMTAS
The test is described as follows: IRAK4(h) Eurofins kinase panel. The following applies: Compound concentration 1.0 uM.

Test [4] has as its target T2, Tyrosine-protein kinase receptor TYRO3 (Homo sapiens) (UniProt Q06418).
T2 sequence (whole entry): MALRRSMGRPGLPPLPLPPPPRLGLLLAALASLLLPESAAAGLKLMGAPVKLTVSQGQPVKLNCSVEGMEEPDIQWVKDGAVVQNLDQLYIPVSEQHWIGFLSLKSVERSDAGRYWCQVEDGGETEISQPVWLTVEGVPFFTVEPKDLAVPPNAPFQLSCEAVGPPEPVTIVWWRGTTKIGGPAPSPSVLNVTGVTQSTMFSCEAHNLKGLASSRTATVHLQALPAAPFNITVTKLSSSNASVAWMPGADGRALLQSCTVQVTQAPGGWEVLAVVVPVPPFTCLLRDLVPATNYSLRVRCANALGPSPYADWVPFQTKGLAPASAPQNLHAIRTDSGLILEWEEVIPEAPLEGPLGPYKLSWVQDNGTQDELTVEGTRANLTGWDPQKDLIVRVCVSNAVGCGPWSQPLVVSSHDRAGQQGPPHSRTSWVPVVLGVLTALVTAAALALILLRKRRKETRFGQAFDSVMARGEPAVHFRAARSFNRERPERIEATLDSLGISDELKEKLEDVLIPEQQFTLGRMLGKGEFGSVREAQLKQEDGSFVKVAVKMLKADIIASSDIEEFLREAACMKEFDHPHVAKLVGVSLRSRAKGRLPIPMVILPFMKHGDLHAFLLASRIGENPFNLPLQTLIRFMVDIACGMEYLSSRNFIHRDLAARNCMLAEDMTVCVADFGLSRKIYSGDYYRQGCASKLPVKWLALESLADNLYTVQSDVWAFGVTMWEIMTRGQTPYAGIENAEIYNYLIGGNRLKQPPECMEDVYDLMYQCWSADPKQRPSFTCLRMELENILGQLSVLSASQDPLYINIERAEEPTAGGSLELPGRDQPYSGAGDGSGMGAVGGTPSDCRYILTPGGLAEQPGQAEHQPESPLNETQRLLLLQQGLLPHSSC
The experiment in a line: Rse(h) Eurofins kinase panel. The following applies: Compound concentration 1.0 uM.

The target in test [5] is Tyrosine-protein kinase Fes/Fps (Homo sapiens) (UniProt P07332). The test is described as follows: Fes(h) Eurofins kinase panel. The following applies: Compound concentration 1.0 uM.
For the next test, the system named is U-251. The test is described as follows: U251 cell line Proliferation assay. Format: functional, Homo sapiens. The following applies: time 3 day.
Test [6] has as its target Mitogen-activated protein kinase 9 (Homo sapiens) (UniProt P45984). The test is described as follows: JNK2alpha2(h) Eurofins kinase panel. Conditions: Compound concentration 1.0 uM.
In test [7] the target is SRSF protein kinase 1 (Homo sapiens) (UniProt Q96SB4). The experiment in a line: SRPK1(h) Eurofins kinase panel. Conditions: Compound concentration 1.0 uM.
The target of test [8] is T3, Serine/threonine-protein kinase DCLK3 (Homo sapiens) (UniProt Q9C098).
T3 sequence (whole entry): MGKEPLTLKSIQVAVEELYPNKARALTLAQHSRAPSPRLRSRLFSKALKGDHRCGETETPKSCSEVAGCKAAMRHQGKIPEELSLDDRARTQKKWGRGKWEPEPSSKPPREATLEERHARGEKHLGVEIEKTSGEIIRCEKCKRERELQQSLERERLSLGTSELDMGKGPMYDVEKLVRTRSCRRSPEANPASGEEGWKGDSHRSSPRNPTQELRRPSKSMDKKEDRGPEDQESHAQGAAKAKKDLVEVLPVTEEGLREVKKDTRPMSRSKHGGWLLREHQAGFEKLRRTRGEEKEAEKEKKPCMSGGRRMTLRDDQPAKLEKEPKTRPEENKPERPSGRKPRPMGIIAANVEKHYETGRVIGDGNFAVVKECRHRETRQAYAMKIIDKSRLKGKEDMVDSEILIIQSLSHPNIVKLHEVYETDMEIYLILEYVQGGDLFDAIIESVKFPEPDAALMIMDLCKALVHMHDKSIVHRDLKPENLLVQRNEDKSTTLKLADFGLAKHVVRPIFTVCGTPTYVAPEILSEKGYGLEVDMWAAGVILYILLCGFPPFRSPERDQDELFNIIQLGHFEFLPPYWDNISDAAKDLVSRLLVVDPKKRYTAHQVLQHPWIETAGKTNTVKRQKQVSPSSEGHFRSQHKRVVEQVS
The test is described as follows: DCAMKL3(h) Eurofins kinase panel. Conditions: Compound concentration 1.0 uM.

The target of test [9] is Receptor-type tyrosine-protein kinase FLT3 (Homo sapiens) (UniProt P36888). The following applies: Compound concentration 1.0 uM.
The target of test [10] is Tau-tubulin kinase 2 (Homo sapiens) (UniProt Q6IQ55). The test is described as follows: TTBK2(h) Eurofins kinase panel. Conditions: Compound concentration 1.0 uM.
For test [11], the target named is Serine/threonine-protein kinase PLK3 (Homo sapiens) (UniProt Q9H4B4). The experiment in a line: Plk3(h) Eurofins kinase panel. Conditions: Compound concentration 1.0 uM.
Serine/threonine-protein kinase PLK3 (Homo sapiens), sequence (Q9H4B4 whole entry, looked up): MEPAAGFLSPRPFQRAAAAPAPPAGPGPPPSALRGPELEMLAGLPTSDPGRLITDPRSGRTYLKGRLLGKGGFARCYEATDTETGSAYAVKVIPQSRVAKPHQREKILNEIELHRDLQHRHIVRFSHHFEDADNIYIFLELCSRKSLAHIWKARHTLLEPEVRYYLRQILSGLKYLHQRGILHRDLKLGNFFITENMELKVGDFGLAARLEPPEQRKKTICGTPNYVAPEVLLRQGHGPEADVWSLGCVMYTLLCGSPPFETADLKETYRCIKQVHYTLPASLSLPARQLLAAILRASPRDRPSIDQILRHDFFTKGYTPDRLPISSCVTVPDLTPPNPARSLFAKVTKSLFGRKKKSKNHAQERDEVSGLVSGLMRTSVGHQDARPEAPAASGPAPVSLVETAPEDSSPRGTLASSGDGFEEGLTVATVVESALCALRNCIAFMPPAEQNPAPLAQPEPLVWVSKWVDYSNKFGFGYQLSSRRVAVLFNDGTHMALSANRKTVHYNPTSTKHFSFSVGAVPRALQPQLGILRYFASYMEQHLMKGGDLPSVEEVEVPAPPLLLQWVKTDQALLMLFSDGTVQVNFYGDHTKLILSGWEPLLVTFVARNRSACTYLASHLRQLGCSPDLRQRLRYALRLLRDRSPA
Test [12] addresses Transient receptor potential cation channel subfamily M member 7 (Homo sapiens) (UniProt Q96QT4). The experiment in a line: ChaK1(h) Eurofins kinase panel. Conditions: Compound concentration 1.0 uM.
Test [13] addresses Myosin light chain kinase 2, skeletal/cardiac muscle (Homo sapiens) (UniProt Q9H1R3). The test is described as follows: MYLK2(h) Eurofins kinase panel. Conditions: Compound concentration 1.0 uM.
Test [14] concerns the target SRSF protein kinase 2 (Homo sapiens) (UniProt P78362). The experiment in a line: SRPK2(h) Eurofins kinase panel. Conditions: Compound concentration 1.0 uM.
Another test relates to Raji. The experiment in a line: RAJI cell line Proliferation assay. The following applies: time 3 day. Format: functional, Homo sapiens.
Test [15] deals with Ribosomal protein S6 kinase alpha-6 (Homo sapiens) (UniProt Q9UK32). The test is described as follows: Rsk4(h) Eurofins kinase panel. Conditions: Compound concentration 1.0 uM.
Ribosomal protein S6 kinase alpha-6 (Homo sapiens), sequence (Q9UK32 whole entry): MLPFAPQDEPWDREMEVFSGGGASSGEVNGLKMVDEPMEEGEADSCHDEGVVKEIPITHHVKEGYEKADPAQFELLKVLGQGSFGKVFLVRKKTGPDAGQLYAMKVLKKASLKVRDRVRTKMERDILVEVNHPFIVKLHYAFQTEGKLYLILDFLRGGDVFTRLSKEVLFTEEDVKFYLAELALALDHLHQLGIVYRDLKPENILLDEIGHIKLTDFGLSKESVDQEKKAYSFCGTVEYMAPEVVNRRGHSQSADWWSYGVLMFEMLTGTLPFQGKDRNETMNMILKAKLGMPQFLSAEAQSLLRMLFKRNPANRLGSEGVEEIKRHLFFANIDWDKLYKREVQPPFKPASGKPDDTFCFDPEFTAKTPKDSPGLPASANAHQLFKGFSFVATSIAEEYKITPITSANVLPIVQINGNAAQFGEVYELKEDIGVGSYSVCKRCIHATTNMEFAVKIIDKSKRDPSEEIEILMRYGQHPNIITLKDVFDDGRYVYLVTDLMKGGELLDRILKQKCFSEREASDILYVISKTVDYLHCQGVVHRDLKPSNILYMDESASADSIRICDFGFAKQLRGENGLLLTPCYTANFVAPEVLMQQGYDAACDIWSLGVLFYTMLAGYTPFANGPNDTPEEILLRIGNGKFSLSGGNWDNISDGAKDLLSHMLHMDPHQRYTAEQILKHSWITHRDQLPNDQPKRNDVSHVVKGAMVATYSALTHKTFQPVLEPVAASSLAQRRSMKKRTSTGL
The target of test [16] is Serine/threonine-protein kinase WNK2 (Homo sapiens) (UniProt Q9Y3S1). The experiment in a line: WNK2(h) Eurofins kinase panel. Conditions: Compound concentration 1.0 uM.
The next test has as its system PC-3. The test is described as follows: PC-3 cell line Proliferation assay. It counts as functional, Homo sapiens. Conditions: time 6 day.
Test [17] concerns the target Proto-oncogene tyrosine-protein kinase receptor Ret (Homo sapiens) (UniProt P07949). The experiment in a line: Ret(h) Eurofins kinase panel. The following applies: Compound concentration 1.0 uM.

The term inhibition denotes the percentage by which the read-out fell short of the control.

SMILES strings stand for the structures. Some results are limits rather than exact numbers.

Mitogen-activated protein kinase 9 (Homo sapiens), sequence (P45984 whole entry, looked up): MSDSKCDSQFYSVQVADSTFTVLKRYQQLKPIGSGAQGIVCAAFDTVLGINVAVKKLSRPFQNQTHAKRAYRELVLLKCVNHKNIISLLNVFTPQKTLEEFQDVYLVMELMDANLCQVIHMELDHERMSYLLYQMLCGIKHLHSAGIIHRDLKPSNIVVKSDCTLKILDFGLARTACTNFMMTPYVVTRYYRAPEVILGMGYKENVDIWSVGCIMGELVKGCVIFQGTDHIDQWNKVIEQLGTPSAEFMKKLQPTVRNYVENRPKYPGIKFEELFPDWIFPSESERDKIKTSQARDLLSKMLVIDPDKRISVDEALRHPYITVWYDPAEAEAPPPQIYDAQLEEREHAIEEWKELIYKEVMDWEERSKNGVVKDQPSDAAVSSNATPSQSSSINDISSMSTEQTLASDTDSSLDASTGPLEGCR
Histamine H2 receptor (Homo sapiens), sequence (P25021 whole entry): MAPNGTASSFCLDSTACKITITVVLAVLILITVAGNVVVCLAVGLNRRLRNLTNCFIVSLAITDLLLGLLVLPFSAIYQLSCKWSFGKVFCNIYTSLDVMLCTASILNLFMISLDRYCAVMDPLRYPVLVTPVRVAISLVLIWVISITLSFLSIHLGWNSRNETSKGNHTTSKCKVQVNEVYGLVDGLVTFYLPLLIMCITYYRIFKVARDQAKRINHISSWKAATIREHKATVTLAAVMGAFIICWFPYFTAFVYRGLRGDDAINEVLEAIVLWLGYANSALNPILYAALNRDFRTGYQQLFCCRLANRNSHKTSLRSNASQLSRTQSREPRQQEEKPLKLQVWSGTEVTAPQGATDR
Transient receptor potential cation channel subfamily M member 7 (Homo sapiens), sequence (Q96QT4 whole entry): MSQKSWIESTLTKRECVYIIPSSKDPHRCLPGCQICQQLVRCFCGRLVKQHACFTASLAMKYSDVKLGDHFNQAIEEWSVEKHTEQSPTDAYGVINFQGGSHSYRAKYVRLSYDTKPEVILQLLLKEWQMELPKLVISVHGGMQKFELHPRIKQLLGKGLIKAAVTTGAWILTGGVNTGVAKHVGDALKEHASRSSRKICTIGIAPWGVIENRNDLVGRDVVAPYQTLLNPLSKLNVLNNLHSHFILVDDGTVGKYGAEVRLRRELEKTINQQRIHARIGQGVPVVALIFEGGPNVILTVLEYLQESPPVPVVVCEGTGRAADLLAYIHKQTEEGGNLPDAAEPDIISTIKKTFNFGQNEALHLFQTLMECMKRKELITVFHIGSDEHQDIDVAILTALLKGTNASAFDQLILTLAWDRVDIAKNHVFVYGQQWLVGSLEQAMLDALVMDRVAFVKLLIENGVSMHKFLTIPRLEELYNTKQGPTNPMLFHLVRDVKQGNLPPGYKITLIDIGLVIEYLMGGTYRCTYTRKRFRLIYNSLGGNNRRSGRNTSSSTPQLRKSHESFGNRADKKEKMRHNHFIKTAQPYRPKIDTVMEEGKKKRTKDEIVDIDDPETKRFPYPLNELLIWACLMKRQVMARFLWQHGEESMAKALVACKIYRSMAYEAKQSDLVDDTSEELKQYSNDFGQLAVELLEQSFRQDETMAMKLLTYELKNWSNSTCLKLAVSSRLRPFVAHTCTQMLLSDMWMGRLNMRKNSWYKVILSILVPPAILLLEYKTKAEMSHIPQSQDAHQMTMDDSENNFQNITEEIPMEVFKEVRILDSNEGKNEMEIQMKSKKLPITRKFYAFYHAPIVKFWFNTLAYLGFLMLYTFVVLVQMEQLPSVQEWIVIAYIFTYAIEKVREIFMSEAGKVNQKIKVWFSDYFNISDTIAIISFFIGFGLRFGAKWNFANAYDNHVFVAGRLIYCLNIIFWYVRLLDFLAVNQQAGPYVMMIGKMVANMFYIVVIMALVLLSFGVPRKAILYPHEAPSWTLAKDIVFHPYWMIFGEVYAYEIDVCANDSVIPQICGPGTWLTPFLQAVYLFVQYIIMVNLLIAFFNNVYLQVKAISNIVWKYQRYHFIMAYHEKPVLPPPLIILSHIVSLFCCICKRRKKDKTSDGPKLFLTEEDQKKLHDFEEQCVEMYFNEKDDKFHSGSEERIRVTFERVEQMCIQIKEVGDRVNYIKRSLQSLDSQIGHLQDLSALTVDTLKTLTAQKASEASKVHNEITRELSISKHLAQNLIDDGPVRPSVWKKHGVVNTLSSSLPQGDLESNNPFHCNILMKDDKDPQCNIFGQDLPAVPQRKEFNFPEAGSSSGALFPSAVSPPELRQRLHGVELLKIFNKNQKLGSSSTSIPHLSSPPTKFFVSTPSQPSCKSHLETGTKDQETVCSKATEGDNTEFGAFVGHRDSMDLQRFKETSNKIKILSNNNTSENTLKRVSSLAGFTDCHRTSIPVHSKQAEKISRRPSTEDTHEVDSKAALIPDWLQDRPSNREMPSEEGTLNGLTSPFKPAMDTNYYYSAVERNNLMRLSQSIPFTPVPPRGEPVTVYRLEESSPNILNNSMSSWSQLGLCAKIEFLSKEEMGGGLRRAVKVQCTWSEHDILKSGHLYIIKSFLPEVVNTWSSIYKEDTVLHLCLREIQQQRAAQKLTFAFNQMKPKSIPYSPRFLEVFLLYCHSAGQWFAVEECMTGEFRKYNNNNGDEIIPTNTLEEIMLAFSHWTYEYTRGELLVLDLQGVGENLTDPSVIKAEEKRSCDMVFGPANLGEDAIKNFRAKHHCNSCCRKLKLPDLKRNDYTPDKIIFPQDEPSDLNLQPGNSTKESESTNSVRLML
SRSF protein kinase 2 (Homo sapiens), sequence (P78362 whole entry, looked up): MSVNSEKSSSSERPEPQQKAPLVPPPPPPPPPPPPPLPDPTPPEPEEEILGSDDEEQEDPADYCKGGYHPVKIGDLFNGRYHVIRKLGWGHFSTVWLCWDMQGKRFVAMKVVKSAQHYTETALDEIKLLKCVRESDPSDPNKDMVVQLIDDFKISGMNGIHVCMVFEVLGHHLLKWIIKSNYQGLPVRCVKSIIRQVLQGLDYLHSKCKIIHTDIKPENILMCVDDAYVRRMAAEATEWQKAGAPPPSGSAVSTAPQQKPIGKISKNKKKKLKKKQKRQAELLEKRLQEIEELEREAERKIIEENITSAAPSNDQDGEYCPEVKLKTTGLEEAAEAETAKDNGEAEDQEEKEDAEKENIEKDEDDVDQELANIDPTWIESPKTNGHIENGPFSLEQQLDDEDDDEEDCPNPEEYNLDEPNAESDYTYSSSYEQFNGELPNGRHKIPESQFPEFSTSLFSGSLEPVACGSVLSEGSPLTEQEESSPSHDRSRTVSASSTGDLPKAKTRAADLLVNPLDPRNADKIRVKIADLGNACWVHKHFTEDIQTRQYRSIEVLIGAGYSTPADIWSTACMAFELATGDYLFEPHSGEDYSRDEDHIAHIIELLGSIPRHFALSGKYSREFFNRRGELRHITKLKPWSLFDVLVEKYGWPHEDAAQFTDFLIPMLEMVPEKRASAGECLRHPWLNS

Consider `CC1=C(C#N)C(c2ccc3c(c2)c(NC(=O)c2ccccc2C)nn3C)C(C#N)=C(C)N1` [BAY-974], for which the inhibition in [1] was 8.7%.
In the case of `CCc1ccccc1C(=O)Nc1n[nH]c2c(C)c(F)c(C3C(C#N)=C(C)N(C)C(C)=C3C#N)cc12` [BAY-3827], the % residual kinase activity is 91% in test [2]; 103% in test [3]; 105% in test [4]; 89% in test [5]; 88% in [6]; 84% in test [7]. For the same compound, the % residual kinase activity is 100% in test [8]; 7% in [9]; 108% in test [10]; 127% in test [11]; 100% in [12]; 89% in test [13]. For the same compound, the % residual kinase activity was 83% in test [14], 2% in test [15], 87% in test [16] and 23% in test [17]. Further, the figures for the “Cell Proliferation IC50” value in the test with U-251, in the test on Raji and with PC-3 were 20.9 µM, >33 µM and >10 µM, respectively.
